For 3 compounds, Kd, IC50 and Ki results are on record in ChEMBL document CHEMBL3259607, “Hot spot-based design of small-molecule inhibitors for protein-protein interactions” (Bioorg Med Chem Lett, 2014).

Test [1] has as its target T1, Interferon alpha/beta receptor 1 (Homo sapiens, UniProt P17181).
T1 sequence (P17181 whole entry): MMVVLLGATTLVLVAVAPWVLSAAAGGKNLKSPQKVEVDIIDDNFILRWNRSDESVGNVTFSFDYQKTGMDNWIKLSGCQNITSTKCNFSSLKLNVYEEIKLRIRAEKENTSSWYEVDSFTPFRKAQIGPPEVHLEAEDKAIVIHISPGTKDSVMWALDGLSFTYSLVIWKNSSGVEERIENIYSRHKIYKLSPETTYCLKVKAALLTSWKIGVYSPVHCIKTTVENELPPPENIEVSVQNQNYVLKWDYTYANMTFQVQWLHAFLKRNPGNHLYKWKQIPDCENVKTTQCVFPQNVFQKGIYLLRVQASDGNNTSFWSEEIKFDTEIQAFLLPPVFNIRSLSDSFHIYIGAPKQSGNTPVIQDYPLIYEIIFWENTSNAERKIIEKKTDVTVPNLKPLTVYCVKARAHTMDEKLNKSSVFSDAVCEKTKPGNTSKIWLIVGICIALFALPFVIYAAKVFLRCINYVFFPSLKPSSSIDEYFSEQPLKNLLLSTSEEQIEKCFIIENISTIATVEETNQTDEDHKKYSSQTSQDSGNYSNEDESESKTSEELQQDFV
The experiment in a line: Binding affinity to IFNAR (unknown origin) assessed as inhibition of interaction with IFN-alpha.

For test [2], the target named is Von Hippel-Lindau disease tumor suppressor/Elongin B/Elongin C (Homo sapiens, UniProt P40337). The experiment in a line: Displacement of FAM-DEALAHyp-YIPD from VHL/elongins-B/elonginC (unknown origin) by fluorescence polarization assay. It counts as protein-complex assay.
Test [3] addresses TCF4/beta-catenin (Homo sapiens, UniProt P35222+Q9NQB0). The experiment in a line: Inhibition of beta-catenin/T cell factor (unknown origin). It counts as protein-complex assay.

TCF4/beta-catenin, sequence (P35222 whole entry): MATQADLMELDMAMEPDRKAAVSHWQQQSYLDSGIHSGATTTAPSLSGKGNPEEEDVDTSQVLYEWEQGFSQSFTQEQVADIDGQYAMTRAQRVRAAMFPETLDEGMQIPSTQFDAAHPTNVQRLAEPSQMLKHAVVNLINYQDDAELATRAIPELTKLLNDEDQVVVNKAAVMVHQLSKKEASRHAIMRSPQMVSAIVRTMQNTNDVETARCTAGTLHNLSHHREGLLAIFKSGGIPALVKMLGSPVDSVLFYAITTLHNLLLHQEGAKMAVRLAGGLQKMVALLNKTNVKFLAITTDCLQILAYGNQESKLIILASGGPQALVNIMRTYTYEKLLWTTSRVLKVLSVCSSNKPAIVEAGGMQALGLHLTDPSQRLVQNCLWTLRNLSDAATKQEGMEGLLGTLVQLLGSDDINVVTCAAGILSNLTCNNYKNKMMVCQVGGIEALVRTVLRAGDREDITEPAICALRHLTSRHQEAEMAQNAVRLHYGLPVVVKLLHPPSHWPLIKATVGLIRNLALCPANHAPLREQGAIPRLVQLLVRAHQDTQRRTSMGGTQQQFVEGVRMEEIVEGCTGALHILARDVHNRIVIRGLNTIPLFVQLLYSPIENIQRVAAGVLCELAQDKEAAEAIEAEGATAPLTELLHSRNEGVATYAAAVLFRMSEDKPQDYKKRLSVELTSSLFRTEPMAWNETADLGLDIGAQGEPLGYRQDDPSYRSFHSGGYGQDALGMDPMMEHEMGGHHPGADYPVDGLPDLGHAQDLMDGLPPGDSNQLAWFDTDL
TCF4/beta-catenin, sequence (Q9NQB0 whole entry): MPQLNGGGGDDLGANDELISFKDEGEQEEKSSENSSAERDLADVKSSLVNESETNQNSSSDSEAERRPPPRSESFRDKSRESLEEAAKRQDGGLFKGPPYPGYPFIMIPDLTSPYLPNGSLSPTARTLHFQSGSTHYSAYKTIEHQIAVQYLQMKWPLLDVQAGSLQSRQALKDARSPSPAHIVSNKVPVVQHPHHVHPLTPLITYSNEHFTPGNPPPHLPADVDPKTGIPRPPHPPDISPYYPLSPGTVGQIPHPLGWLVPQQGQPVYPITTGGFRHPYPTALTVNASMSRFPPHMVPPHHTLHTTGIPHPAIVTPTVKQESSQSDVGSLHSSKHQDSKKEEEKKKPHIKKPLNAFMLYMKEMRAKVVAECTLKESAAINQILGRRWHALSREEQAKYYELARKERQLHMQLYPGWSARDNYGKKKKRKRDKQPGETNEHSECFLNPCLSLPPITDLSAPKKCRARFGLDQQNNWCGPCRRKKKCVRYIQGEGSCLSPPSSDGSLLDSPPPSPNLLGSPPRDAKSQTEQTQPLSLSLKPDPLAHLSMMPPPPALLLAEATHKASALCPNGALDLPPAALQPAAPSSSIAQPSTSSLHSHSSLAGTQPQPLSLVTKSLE
Von Hippel-Lindau disease tumor suppressor/Elongin B/Elongin C, sequence (P40337 whole entry, looked up): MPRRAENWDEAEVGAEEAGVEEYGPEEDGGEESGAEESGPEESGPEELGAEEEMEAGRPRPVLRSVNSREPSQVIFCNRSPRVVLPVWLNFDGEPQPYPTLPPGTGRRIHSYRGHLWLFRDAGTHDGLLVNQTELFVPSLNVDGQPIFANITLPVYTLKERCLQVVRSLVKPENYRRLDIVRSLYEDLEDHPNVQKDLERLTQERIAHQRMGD

Consider `CNCc1ccccc1Sc1cccc2ccccc12`, for which the Kd in test [1] was determined as 4000 nM.
In test [2], `Cc1ncsc1-c1ccc(CNC(=O)[C@@H]2C[C@@H](O)CN2C(=O)c2cccc(N)c2C)cc1` had an IC50 of 900 nM.
Take `Oc1noc2cc(CCc3nn[nH]n3)ccc12`: the Ki in test [3] stood at 1350 nM.

The term Kd denotes the free concentration of one partner at which half of the binding sites on the other are occupied at equilibrium, for simple one-to-one binding. In general, IC50 refers to the midpoint of a concentration-inhibition curve. Low readings indicate greater potency, high ones weaker potency. As usually defined, the Ki is a dissociation constant, usually derived from enzyme kinetics or from competition with a known ligand. Read a low Ki as higher affinity.
